Assay results as given in ChEMBL document CHEMBL1909046, “DrugMatrix in vitro pharmacology data”.

Columns and labels:
[1] = DRUGMATRIX: Atrial Natriuretic Factor (ANF) radioligand binding (ligand: [125I] ANF (rat)); assay type: cell membranes, Cavia porcellus, Dunkin-Hartley, Adrenal gland, Membrane; conditions: Not Active = under 50% inhibition at 10 µM
[2] = DRUGMATRIX: Glutamate, NMDA, Agonism radioligand binding (ligand: [3H] CGP-39653); assay type: cell membranes, Rattus norvegicus, Wistar, Cerebral cortex, Membrane; conditions: Not Active = under 50% inhibition at 10 µM
[3] = DRUGMATRIX: Calcium Channel Type L, Phenylalkylamine radioligand binding (ligand: [3H] (-)-Desmethoxyverapamil (D-888)); assay type: cell membranes, Rattus norvegicus, Wistar, Brain, Membrane; conditions: Not Active = under 50% inhibition at 10 µM
[4] = molecular target: Delta-type opioid receptor (Homo sapiens, UniProt P41143); assay type: cell membranes, HEK293, Membrane; conditions: hek293; note: in other assays of this panel Not Active means under 50% inhibition at 10 µM
[5] = molecular target: T1, C-X-C chemokine receptor type 2 (Homo sapiens, UniProt P25025); assay type: cell membranes, CHO-K1, Membrane; conditions: cho-k1; note: in other assays of this panel Not Active means under 50% inhibition at 10 µM
T1 sequence (P25025 whole entry): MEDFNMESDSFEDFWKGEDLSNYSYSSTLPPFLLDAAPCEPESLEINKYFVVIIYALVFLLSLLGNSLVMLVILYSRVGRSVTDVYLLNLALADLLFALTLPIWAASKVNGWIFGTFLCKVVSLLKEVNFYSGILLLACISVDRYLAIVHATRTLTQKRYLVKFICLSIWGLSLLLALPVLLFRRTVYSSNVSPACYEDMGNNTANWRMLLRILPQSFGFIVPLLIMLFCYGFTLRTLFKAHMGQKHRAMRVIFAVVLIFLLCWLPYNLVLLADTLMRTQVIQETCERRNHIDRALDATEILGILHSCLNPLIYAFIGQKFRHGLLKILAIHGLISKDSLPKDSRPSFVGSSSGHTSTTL

[6] = molecular target: T2, Nitric oxide synthase, inducible (Mus musculus, UniProt P29477); parameters: species or system Escherichia coli;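 note: inhibition of iNOS enzyme activity measured with L-arginine as substrate; in other assays of this panel Not Active means under 50% inhibition at 10 µM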
T2 sequence (P29477 whole entry): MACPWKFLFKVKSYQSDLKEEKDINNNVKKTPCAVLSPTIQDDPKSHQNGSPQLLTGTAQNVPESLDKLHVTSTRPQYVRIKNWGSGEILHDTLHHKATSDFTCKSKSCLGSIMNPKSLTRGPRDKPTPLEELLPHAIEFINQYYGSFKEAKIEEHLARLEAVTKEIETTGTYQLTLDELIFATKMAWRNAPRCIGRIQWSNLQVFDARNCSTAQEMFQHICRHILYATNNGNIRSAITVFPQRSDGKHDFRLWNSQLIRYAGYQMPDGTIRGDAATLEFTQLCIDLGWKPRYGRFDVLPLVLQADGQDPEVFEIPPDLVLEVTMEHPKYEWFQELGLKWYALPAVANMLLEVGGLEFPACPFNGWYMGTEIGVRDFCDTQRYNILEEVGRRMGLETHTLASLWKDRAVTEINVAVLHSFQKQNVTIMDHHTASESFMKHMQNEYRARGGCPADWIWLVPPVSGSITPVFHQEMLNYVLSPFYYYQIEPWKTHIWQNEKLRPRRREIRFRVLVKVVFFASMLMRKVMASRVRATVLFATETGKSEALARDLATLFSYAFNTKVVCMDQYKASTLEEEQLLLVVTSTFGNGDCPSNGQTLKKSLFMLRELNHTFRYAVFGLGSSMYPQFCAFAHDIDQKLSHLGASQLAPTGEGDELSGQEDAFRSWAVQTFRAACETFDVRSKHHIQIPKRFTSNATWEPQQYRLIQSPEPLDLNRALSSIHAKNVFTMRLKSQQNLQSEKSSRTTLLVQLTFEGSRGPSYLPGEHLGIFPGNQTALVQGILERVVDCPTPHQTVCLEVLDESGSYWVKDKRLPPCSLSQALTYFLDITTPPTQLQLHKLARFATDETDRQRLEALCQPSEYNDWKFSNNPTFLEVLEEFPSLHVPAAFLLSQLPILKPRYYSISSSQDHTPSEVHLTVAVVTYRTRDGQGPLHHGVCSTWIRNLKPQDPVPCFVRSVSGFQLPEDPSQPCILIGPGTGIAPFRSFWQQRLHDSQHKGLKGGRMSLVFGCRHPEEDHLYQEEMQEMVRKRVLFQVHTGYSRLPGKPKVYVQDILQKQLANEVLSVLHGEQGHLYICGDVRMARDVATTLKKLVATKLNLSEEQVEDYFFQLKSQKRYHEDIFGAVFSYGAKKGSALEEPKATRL

[7] = DRUGMATRIX: ATPase, Na+/K+ enzyme inhibition (substrate: ATP); assay type: tissue-based, Sus scrofa, Heart; conditions: Not Active = under 50% inhibition at 10 µM

Chain of Delta-type opioid receptor (P41143 whole entry): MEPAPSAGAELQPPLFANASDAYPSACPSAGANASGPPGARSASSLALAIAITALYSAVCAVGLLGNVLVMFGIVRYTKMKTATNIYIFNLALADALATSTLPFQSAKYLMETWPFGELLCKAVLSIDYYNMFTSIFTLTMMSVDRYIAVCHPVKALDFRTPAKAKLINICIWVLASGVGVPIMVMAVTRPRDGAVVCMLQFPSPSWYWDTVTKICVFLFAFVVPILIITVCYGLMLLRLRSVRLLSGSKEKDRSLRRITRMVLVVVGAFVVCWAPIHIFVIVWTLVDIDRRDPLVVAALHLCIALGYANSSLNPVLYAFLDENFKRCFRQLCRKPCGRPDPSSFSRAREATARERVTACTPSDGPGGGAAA

| SMILES | IC50 [1] | Ki [1] | IC50 [2] | Ki [2] | IC50 [3] | Ki [3] | IC50 [4] | IC50 [5] | IC50 [6] | IC50 [7] | Ki [7] | IC50 ([3]; read-out: IC50) | Ki ([3]; read-out: Ki) |
| --- | --- | --- | --- | --- | --- | --- | --- | --- | --- | --- | --- | --- | --- |
| C#C[C@]1(O)CC[C@H]2[C@@H]3CCC4=CC(=O)CC[C@@H]4[C@H]3CC[C@@]21C [NORETHINDRONE] | Not Active | Not Active | Not Active | Not Active | Not Active | Not Active | Not Active | Not Active | Not Active | Not Active | Not Active |  |  |
| CC(CN1c2ccccc2Sc2ccccc21)N(C)C (stereo not given) [PROMETHAZINE] | Not Active | Not Active | Not Active | Not Active |  |  | Not Active | Not Active | Not Active | Not Active | Not Active | 0.866 µM | 0.842 µM |
| COc1cc(NC(C)CCCN)c2ncccc2c1 (stereo not given) [PRIMAQUINE] | Not Active | Not Active | Not Active | Not Active | Not Active | Not Active | Not Active | Not Active | Not Active | Not Active | Not Active |  |  |
| CCCCCCNC(=O)n1cc(F)c(=O)[nH]c1=O [CARMOFUR] | Not Active | Not Active | Not Active | Not Active | Not Active | Not Active | Not Active | Not Active | Not Active | Not Active | Not Active |  |  |
| Cc1cc(C(C)(C)C)c(O)c(C)c1CC1=NCCN1 [OXYMETAZOLINE] | Not Active | Not Active | Not Active | Not Active |  |  | Not Active | Not Active | Not Active | Not Active | Not Active | 2.25 µM | 2.18 µM |
| O=c1[nH]c2ccccc2c2ccccc12 | Not Active | Not Active | Not Active | Not Active | Not Active | Not Active | Not Active | Not Active | Not Active | Not Active | Not Active |  |  |
| C=C(Cl)Cl [1,1-DICHLOROETHENE] | Not Active | Not Active | Not Active | Not Active | Not Active | Not Active | Not Active | Not Active | Not Active | Not Active | Not Active |  |  |
| CC(=O)[C@]1(O)Cc2c(O)c3c(c(O)c2[C@@H](O[C@H]2C[C@H](N)[C@H](O)[C@H](C)O2)C1)C(=O)c1ccccc1C3=O [IDARUBICIN] | Not Active | Not Active | Not Active | Not Active | Not Active | Not Active | Not Active | Not Active | Not Active | Not Active | Not Active |  |  |
| Oc1ccccc1 [PHENOL] | Not Active | Not Active | Not Active | Not Active | Not Active | Not Active | Not Active | Not Active | Not Active | Not Active | Not Active |  |  |
| O=C(Nc1ccc(Cl)c(Cl)c1)c1cc(Cl)cc(Cl)c1O [3,3',4',5-TETRACHLOROSALICYLANILIDE] | Not Active | Not Active | Not Active | Not Active | Not Active | Not Active | Not Active | Not Active | Not Active | Not Active | Not Active |  |  |
